Measured values taken from the NIST ThermoML archive (doi:10.1021/acs.jced.8b00132).
“And” between values parts separate entries of the source, which are not always exact repeats. Equal entries are not always repeated.

Conditions: Liquid, transient hot wire

O=C(C(F)(F)C(F)(F)F)C(F)(C(F)(F)F)C(F)(F)F [dodecafluoro-2-methylpentan-3-one]
Conditions	thermal conductivity
242.34 K, 5849 kPa	0.06998 W/m/K
242.34 K, 5853 kPa	0.06965 W/m/K
242.35 K, 208 kPa	0.06798 W/m/K
242.35 K, 212 kPa	0.06825 W/m/K
242.58 K, 60304 kPa	0.08223 W/m/K
242.58 K, 60314 kPa	0.08199 W/m/K
242.59 K, 33710 kPa	0.0767 W/m/K
242.59 K, 50797 kPa	0.08019 W/m/K
242.59 K, 50816 kPa	0.07983 W/m/K
242.59 K, 68418 kPa	0.08363 W/m/K
242.59 K, 68434 kPa	0.08369 W/m/K
242.6 K, 33703 kPa	0.07658 W/m/K
242.6 K, 41984 kPa	0.07877 W/m/K
242.6 K, 41989 kPa	0.07848 W/m/K
242.67 K, 25698 kPa	0.07459 W/m/K
242.68 K, 25706 kPa	0.07494 W/m/K
242.77 K, 18756 kPa	0.073 W/m/K
242.77 K, 18761 kPa	0.07312 W/m/K
242.79 K, 12031 kPa	0.07146 W/m/K
242.8 K, 12030 kPa	0.07148 W/m/K
242.91 K, 5853 kPa	0.06968 W/m/K
242.91 K, 5856 kPa	0.06976 W/m/K
242.92 K, 207 kPa	0.06801 W/m/K
242.93 K, 208 kPa	0.06804 W/m/K
243.11 K, 60298 kPa	0.08226 W/m/K
243.11 K, 68406 kPa	0.084 W/m/K
243.11 K, 68416 kPa	0.08398 W/m/K
243.12 K, 60300 kPa	0.082 W/m/K
243.13 K, 50796 kPa	0.08047 W/m/K
243.13 K, 50797 kPa	0.08042 W/m/K
243.16 K, 41981 kPa	0.07861 W/m/K
243.16 K, 41982 kPa	0.07868 W/m/K
243.17 K, 33693 kPa	0.07674 W/m/K
243.17 K, 33696 kPa	0.07679 W/m/K
243.25 K, 25695 kPa	0.07494 W/m/K
243.26 K, 25691 kPa	0.07494 W/m/K
243.36 K, 18758 kPa	0.07321 W/m/K
243.36 K, 18761 kPa	0.07324 W/m/K
243.39 K, 12032 kPa	0.07131 W/m/K
243.41 K, 12030 kPa	0.07139 W/m/K
243.52 K, 5859 kPa	0.0695 W/m/K and 0.06954 W/m/K
243.55 K, 209 kPa	0.06795 W/m/K
243.56 K, 209 kPa	0.06794 W/m/K
243.69 K, 68395 kPa	0.08376 W/m/K
243.69 K, 68403 kPa	0.08352 W/m/K
243.7 K, 60284 kPa	0.08212 W/m/K
243.71 K, 60287 kPa	0.08216 W/m/K
243.73 K, 50783 kPa	0.08028 W/m/K
243.74 K, 50794 kPa	0.08029 W/m/K
243.77 K, 41976 kPa	0.07861 W/m/K
243.77 K, 41985 kPa	0.07849 W/m/K
243.8 K, 33690 kPa	0.07668 W/m/K
243.8 K, 33707 kPa	0.07668 W/m/K
271.75 K, 5167 kPa	0.06405 W/m/K
271.76 K, 5170 kPa	0.06371 W/m/K
271.8 K, 431 kPa	0.06194 W/m/K
271.81 K, 411 kPa	0.06198 W/m/K
271.99 K, 24357 kPa	0.07109 W/m/K
271.99 K, 24380 kPa	0.07115 W/m/K
272.01 K, 32229 kPa	0.0734 W/m/K
272.01 K, 32230 kPa	0.07317 W/m/K
272.03 K, 40370 kPa	0.07538 W/m/K
272.04 K, 40373 kPa	0.07501 W/m/K
272.04 K, 46123 kPa	0.07637 W/m/K
272.05 K, 11155 kPa	0.06578 W/m/K
272.05 K, 11165 kPa	0.06595 W/m/K
272.05 K, 46118 kPa	0.07672 W/m/K
272.06 K, 17558 kPa	0.06827 W/m/K
272.07 K, 17554 kPa	0.06805 W/m/K
272.15 K, 5158 kPa	0.06391 W/m/K
272.16 K, 5173 kPa	0.06421 W/m/K
272.21 K, 418 kPa	0.06216 W/m/K
272.21 K, 421 kPa	0.06256 W/m/K
272.49 K, 24363 kPa	0.06931 W/m/K
272.5 K, 32236 kPa	0.07245 W/m/K
272.5 K, 32238 kPa	0.07194 W/m/K
272.5 K, 40381 kPa	0.07419 W/m/K
272.51 K, 40379 kPa	0.07408 W/m/K
272.52 K, 46113 kPa	0.0755 W/m/K
272.52 K, 46119 kPa	0.07509 W/m/K
272.58 K, 5167 kPa	0.06402 W/m/K
272.58 K, 11163 kPa	0.0662 W/m/K
272.58 K, 17548 kPa	0.06807 W/m/K
272.58 K, 17564 kPa	0.06792 W/m/K
